One experiment deals with human (hACC2) (Homo sapiens, UniProt O00763). The experiment can be described thus: In vitro ACC inhibition assay (ADP-Glo), hACC2. It is filed as biochemical. The settings on record: 5 nM ACC2, 20 μM ATP, 20 μM acetyl-CoA. The method, then:
The detailed procedure is as follows. […] 10 μL ADP glo reagent was added. […] 20 μL kinase detection reagent was added.
A general note: In ADP-Glo the light output rises with the ADP produced.

Experiment [1] has as its system Phytophthora capsici (Pc). The experiment can be described thus: Growth inhibition assay of fungal pathogens, Pc. It is filed as cell-based. Conditions: 48 h. The gist of the method: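 Read-out: OD600 plus visual rating at 24 and 48 h, blank (media + 2% DMSO) subtracted. Percent inhibition was derived at 48 h versus the 2% DMSO control. Spores were grown in 17% V8 broth with compound at 50/10/2 or 2/0.4/0.08 ppm final.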

[2] abbreviates: read-out: Concentration at 90% Inhibition Pc, Phytophthora capsici, growth inhibition at 48 hours vs 2% DMSO control.
[3] abbreviates: read-out: Concentration at 90% Inhibition Pc, Phytophthora capsici, growth inhibition vs 2% DMSO control at 48 hours.
Where [4] appears, read: growth inhibition at 48 hours vs 2% DMSO control, read-out: Concentration at 90% Inhibition Pc.
Where [5] appears, read: growth inhibition vs 2% DMSO control at 48 hours, read-out: Concentration at 90% Inhibition Pc.

Among the data in patent publication US10800791B2, “Triazole ACC inhibitors and uses thereof” (Gilead Apollo, LLC, priority 2015, dated 2020) are IC50 and IC90 values, retold here.

Converted amounts (≈) assume the structure as drawn. Where two headings read alike, the source gives them in different places. Where only a bound is given, the exact number is not on record here.

Broadly, the IC50 is the concentration that inhibits the measured activity by half.

Chain of human (hACC2) (O00763 whole entry): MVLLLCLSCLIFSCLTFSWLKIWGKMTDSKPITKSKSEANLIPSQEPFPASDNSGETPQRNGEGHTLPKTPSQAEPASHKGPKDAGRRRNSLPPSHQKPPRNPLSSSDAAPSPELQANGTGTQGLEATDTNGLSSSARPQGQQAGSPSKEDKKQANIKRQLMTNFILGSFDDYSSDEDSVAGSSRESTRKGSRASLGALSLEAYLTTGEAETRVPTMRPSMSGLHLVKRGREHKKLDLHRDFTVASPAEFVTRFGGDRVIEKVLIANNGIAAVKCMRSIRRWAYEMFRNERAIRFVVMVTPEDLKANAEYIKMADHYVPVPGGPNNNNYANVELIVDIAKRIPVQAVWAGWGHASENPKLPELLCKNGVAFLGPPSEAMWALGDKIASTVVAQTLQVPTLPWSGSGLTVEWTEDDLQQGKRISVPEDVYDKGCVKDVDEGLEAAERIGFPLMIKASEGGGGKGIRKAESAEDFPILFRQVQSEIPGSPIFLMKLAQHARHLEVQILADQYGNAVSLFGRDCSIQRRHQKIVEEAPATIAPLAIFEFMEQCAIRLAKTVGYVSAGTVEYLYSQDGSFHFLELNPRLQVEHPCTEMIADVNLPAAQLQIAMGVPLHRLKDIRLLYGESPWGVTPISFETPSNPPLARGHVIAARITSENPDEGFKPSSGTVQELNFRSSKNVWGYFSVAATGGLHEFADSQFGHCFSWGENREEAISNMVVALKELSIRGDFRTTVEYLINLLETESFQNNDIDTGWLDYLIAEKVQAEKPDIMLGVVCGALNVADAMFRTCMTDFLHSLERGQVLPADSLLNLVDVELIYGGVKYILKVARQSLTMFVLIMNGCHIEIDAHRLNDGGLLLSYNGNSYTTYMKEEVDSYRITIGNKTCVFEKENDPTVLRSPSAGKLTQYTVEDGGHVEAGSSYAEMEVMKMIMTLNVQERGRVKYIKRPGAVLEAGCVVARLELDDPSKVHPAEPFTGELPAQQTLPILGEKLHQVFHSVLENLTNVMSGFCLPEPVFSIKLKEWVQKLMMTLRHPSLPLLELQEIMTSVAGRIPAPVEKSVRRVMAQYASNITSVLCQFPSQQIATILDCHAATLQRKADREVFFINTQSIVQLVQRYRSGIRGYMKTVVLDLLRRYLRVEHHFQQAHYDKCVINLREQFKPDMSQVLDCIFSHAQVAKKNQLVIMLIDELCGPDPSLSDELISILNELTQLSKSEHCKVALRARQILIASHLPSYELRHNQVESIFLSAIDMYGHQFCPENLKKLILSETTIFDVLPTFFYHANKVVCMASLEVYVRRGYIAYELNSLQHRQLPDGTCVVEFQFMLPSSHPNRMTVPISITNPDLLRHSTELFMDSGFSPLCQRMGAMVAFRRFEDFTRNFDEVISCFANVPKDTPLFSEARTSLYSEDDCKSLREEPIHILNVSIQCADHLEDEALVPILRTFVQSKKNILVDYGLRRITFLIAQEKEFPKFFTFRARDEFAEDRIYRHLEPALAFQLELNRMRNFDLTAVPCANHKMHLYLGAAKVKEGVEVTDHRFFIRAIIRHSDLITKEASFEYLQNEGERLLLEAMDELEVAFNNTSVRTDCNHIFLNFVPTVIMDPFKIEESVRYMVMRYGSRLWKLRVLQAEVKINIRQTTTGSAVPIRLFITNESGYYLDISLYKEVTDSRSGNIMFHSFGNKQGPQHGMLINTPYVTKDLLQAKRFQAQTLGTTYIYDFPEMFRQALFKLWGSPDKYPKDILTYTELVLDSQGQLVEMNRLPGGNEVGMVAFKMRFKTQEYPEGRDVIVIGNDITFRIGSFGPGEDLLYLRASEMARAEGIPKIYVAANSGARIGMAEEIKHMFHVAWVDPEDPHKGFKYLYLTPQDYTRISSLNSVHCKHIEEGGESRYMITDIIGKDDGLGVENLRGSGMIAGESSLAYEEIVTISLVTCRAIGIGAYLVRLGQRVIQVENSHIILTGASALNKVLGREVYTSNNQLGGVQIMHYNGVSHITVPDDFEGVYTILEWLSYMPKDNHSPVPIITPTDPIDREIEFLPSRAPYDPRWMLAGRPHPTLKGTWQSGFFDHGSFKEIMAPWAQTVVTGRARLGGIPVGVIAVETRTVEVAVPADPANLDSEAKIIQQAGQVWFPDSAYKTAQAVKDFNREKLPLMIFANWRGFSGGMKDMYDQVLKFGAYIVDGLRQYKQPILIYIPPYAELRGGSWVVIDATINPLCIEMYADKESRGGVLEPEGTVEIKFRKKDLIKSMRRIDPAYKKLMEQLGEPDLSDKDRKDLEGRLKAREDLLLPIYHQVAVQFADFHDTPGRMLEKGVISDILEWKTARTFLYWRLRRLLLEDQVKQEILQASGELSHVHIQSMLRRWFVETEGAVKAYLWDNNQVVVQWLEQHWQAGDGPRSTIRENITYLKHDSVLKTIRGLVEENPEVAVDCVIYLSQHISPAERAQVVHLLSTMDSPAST

For `COc1ccc(F)cc1[C@H](Cn1c(=O)n(CC(=O)NC(C)C)c(=O)c2c(C)c(-n3nccn3)sc21)OC(C)C` [Compound I-35, (R)-2-(1-(2-(5-fluoro-2-methoxyphenyl)-2-isopropoxy-ethyl)-5-methyl-2,4-dioxo-6-(2H-1,2,3-triazol-2-yl)-1,4-dihydrothieno[2,3-d]pyrimidin-3(2H)-yl)-N-isopropylacetamide], the IC50 on human (hACC2) (Table 2a) was in the range of 1 to 5 nM; against human (hACC2) (Table 2b, additional results) it was 1 to 5 nM. The IC90 in experiment [1] (setting [2]) and in experiment [1] (setting [3]) was above 50 µg/mL in each case.
Turning to `CCO[C@@H](Cn1c(=O)n(C(C)(C)C(=O)N2CCCC2)c(=O)c2c(C)c(-n3nccn3)sc21)c1cc(F)ccc1OC` [Compound I-42, (R)-1-(2-ethoxy-2-(5-fluoro-2-methoxyphenyl)ethyl)-5-methyl-3-(2-methyl-1-oxo-1-(pyrrolidin-1-yl)propan-2-yl)-6-(2H-1,2,3-triazol-2-yl)thieno[2,3-d]pyrimidine-2,4(1H,3H)-dione], the concentration for half-maximal inhibition (IC50) against human (hACC2) (Table 2a) lay within 5 to 10 nM; at human (hACC2) (Table 2b, additional results), 5 to 10 nM. Also, the IC90 in experiment [1] (setting [4]) and in experiment [1] (setting [5]) was above 50 µg/mL in each case.
Regarding `COc1ccc(F)cc1[C@H](Cn1c(=O)n(C(C)(C)C(=O)NC(C)C)c(=O)c2c(C)c(-n3nccn3)sc21)OCCO` [Compound I-43, (R)-2-(1-(2-(5-fluoro-2-methoxyphenyl)-2-(2-hydroxyethoxy)ethyl)-5-methyl-2,4-dioxo-6-(2H-1,2,3-triazol-2-yl)-1,4-dihydrothieno[2,3-d]pyrimidin-3(2H)-yl)-N-isopropyl-2-methylpropanamide], the IC50 against human (hACC2) (Table 2a) lay within 5 to 10 nM; on human (hACC2) (Table 2b, additional results), 5 to 10 nM. Moreover, the results for the IC90 in experiment [1] (setting [2]) and in experiment [1] (setting [3]) were 2 µg/mL (≈ 3.4 µM) and 10 µg/mL (≈ 17 µM), respectively.
On to `COc1ccc(F)cc1[C@H](Cn1c(=O)n(C(C)(C)C(=O)N2CCCC2)c(=O)c2c(C)c(-n3nccn3)sc21)OCCO` [Compound I-44, (R)-1-(2-(5-fluoro-2-methoxyphenyl)-2-(2-hydroxyethoxy)ethyl)-5-methyl-3-(2-methyl-1-oxo-1-(pyrrolidin-1-yl)propan-2-yl)-6-(2H-1,2,3-triazol-2-yl)thieno[2,3-d]pyrimidine-2,4(1H,3H)-dione], for which the IC50 against human (hACC2) (Table 2a) was in the range of 5 to 10 nM; on human (hACC2) (Table 2b, additional results) it was 5 to 10 nM. For the same compound, the IC90 in experiment [1] (setting [4]) and in experiment [1] (setting [5]) was above 50 µg/mL in each case.
For `COc1ccc(F)cc1[C@H](Cn1c(=O)n(C(C)(C)C(=O)NC(C)C)c(=O)c2c(C)c(-n3nccn3)sc21)OC[C@@H](C)O` [Compound I-45, 2-(1-((R)-2-(5-fluoro-2-methoxyphenyl)-2-((R)-2-hydroxypropoxy)ethyl)-5-methyl-2,4-dioxo-6-(2H-1,2,3-triazol-2-yl)-1,4-dihydro-thieno[2,3-d]pyrimidin-3(2H)-yl)-N-isopropyl-2-methylpropanamide], the half-maximal inhibitory concentration (IC50) on human (hACC2) (Table 2a) lay in the range of 10 to 40 nM; at human (hACC2) (Table 2b, additional results), 10 to 40 nM. Besides, the IC90 is 2 µg/mL (≈ 3.32 µM) in experiment [1] (setting [2]) and 10 µg/mL (≈ 16.6 µM) in experiment [1] (setting [3]).
As for `COc1ccc(F)cc1[C@H](Cn1c(=O)n(C(C)(C)C(=O)N2CCCC2)c(=O)c2c(C)c(-n3nccn3)sc21)OC[C@@H](C)O` [Compound I-46, 1-((R)-2-(5-fluoro-2-methoxyphenyl)-2-((R)-2-hydroxypropoxy)ethyl)-5-methyl-3-(2-methyl-1-oxo-1-(pyrrolidin-1-yl)propan-2-yl)-6-(2H-1,2,3-triazol-2-yl)thieno[2,3-d]pyrimidine-2,4(1H,3H)-dione], the IC50 was 5 to 10 nM against human (hACC2) (Table 2a) and 5 to 10 nM on human (hACC2) (Table 2b, additional results). Besides, the IC90 in experiment [1] (setting [4]) and in experiment [1] (setting [5]) was above 50 µg/mL throughout.
As to `COc1ccc(F)cc1[C@H](Cn1c(=O)n(C(C)(C)C(=O)NC(C)C)c(=O)c2c(C)c(-n3nccn3)sc21)OC[C@H](C)O` [Compound I-47, 2-(1-((R)-2-(5-fluoro-2-methoxyphenyl)-2-((S)-2-hydroxypropoxy)ethyl)-5-methyl-2,4-dioxo-6-(2H-1,2,3-triazol-2-yl)-1,4-dihydro-thieno[2,3-d]pyrimidin-3(2H)-yl)-N-isopropyl-2-methylpropanamide], the IC50 against human (hACC2) (Table 2a) was in the range of 10 to 40 nM; on human (hACC2) (Table 2b, additional results), 10 to 40 nM. Further, the IC90 in experiment [1] (setting [2]) and in experiment [1] (setting [3]) was above 50 µg/mL in each case.
Turning to `COc1ccc(F)cc1[C@H](Cn1c(=O)n(C(C)(C)C(=O)N2CCCC2)c(=O)c2c(C)c(-n3nccn3)sc21)OC[C@H](C)O` [Compound I-48, 1-((R)-2-(5-fluoro-2-methoxyphenyl)-2-((S)-2-hydroxy-propoxy)ethyl)-5-methyl-3-(2-methyl-1-oxo-1-(pyrrolidin-1-yl)propan-2-yl)-6-(2H-1,2,3-triazol-2-yl)thieno[2,3-d]pyrimidine-2,4(1H,3H)-dione], the IC50 lay within 5 to 10 nM on human (hACC2) (Table 2a) and 5 to 10 nM on human (hACC2) (Table 2b, additional results). Moreover, the IC90 in experiment [1] (setting [4]) and in experiment [1] (setting [5]) was above 50 µg/mL each time.
With `COc1ccc(F)cc1[C@H](Cn1c(=O)n(C(C)(C)C(=O)N(C)C)c(=O)c2c(C)c(-n3nccn3)sc21)OC(C)C` [Compound I-49, (R)-2-(1-(2-(5-fluoro-2-methoxyphenyl)-2-isopropoxy-ethyl)-5-methyl-2,4-dioxo-6-(2H-1,2,3-triazol-2-yl)-1,4-dihydrothieno[2,3-d]pyrimi-din-3(2H)-yl)-N,N,2-trimethylpropanamide], the IC50 against human (hACC2) (Table 2a) was 10 to 40 nM; on human (hACC2) (Table 2b, additional results), 10 to 40 nM. For the same compound, the IC90 in experiment [1] (setting [2]) and in experiment [1] (setting [3]) was above 50 µg/mL each time.
For the compound `CNC(=O)C(C)(C)n1c(=O)c2c(C)c(-n3nccn3)sc2n(C[C@H](OC(C)C)c2cc(F)ccc2OC)c1=O` [Compound I-50, (R)-2-(1-(2-(5-fluoro-2-methoxyphenyl)-2-isopropoxy-ethyl)-5-methyl-2,4-dioxo-6-(2H-1,2,3-triazol-2-yl)-1,4-dihydrothieno[2,3-d]pyrimidin-3(2H)-yl)-N,2-dimethylpropanamide], the IC50 against human (hACC2) (Table 2a) lay within 5 to 10 nM; at human (hACC2) (Table 2b, additional results) it was 5 to 10 nM. For the same compound, the IC90 in experiment [1] (setting [2]) and in experiment [1] (setting [3]) was above 50 µg/mL in each case.
Turning to `COc1ccc(F)cc1[C@H](Cn1c(=O)n(C(C)(C)C(=O)N2CC=CC2)c(=O)c2c(C)c(-n3nccn3)sc21)OC(C)C` [Compound I-51, (R)-3-(1-(2,5-dihydro-1H-pyrrol-1-yl)-2-methyl-1-oxopropan-2-yl)-1-(2-(5-fluoro-2-methoxyphenyl)-2-isopropoxyethyl)-5-methyl-6-(2H-1,2,3-triazol-2-yl)thieno[2,3-d]pyrimidine-2,4(1H,3H)-dione], the IC50 against human (hACC2) (Table 2a) lay within 5 to 10 nM; against human (hACC2) (Table 2b, additional results), 5 to 10 nM. The IC90 in experiment [1] (setting [4]) and in experiment [1] (setting [5]) was above 50 µg/mL throughout.
As to `COc1ccc(F)cc1[C@H](Cn1c(=O)n(C(C)(C)C(=O)NCC#N)c(=O)c2c(C)c(-n3nccn3)sc21)OC(C)C` [Compound I-52, (R)—N-(cyanomethyl)-2-(1-(2-(5-fluoro-2-methoxyphenyl)-2-isopropoxyethyl)-5-methyl-2,4-dioxo-6-(2H-1,2,3-triazol-2-yl)-1,4-dihydro-thieno[2,3-d]pyrimidin-3(2H)-yl)-2-methylpropanamide], the IC50 against human (hACC2) (Table 2a) fell in the range of 10 to 40 nM; on human (hACC2) (Table 2b, additional results), 10 to 40 nM. Besides, the IC90 in experiment [1] (setting [2]) and in experiment [1] (setting [3]) was above 50 µg/mL each time.
Take `Cc1c(-n2nccn2)sc2c1c(=O)n(C(C)(C)C(=O)NC(C)C)c(=O)n2C[C@H](OC(C)C)c1cc(F)ccc1OCCO` [Compound I-53, (R)-2-(1-(2-(5-fluoro-2-(2-hydroxyethoxy)phenyl)-2-isopropoxyethyl)-5-methyl-2,4-dioxo-6-(2H-1,2,3-triazol-2-yl)-1,4-dihydrothieno[2,3-d]pyrimidin-3(2H)-yl)-N-isopropyl-2-methylpropanamide]: the half-maximal inhibitory concentration (IC50) was in the range of 10 to 40 nM against human (hACC2) (Table 2a) and 10 to 40 nM at human (hACC2) (Table 2b, additional results). For the same compound, the IC90 in experiment [1] (setting [4]) and in experiment [1] (setting [5]) was above 50 µg/mL each time.
With `COCCOc1ccc(F)cc1[C@H](Cn1c(=O)n(C(C)(C)C(=O)NC(C)C)c(=O)c2c(C)c(-n3nccn3)sc21)OC(C)C` [Compound I-54, (R)-2-(1-(2-(5-fluoro-2-(2-methoxyethoxy)phenyl)-2-isopropoxyethyl)-5-methyl-2,4-dioxo-6-(2H-1,2,3-triazol-2-yl)-1,4-dihydrothieno[2,3-d]pyrimidin-3(2H)-yl)-N-isopropyl-2-methylpropanamide], the IC50 on human (hACC2) (Table 2a) was in the range of 10 to 40 nM; on human (hACC2) (Table 2b, additional results) it was 10 to 40 nM. In addition, the IC90 in experiment [1] (setting [4]) and in experiment [1] (setting [5]) was above 50 µg/mL in each case.
As for `Cc1c(-n2nccn2)sc2c1c(=O)n(C(C)(C)C(=O)NC(C)C)c(=O)n2C[C@H](OC(C)C)c1cc(F)ccc1OCC1COC1` [Compound I-55, (R)-2-(1-(2-(5-fluoro-2-(oxetan-3-ylmethoxy)phenyl)-2-isopropoxyethyl)-5-methyl-2,4-dioxo-6-(2H-1,2,3-triazol-2-yl)-1,4-dihydrothieno[2,3-d]pyrimidin-3(2H)-yl)-N-isopropyl-2-methylpropanamide], the IC50 lay within 10 to 40 nM on human (hACC2) (Table 2a) and 10 to 40 nM against human (hACC2) (Table 2b, additional results). Moreover, the IC90 in experiment [1] (setting [4]) and in experiment [1] (setting [5]) was above 50 µg/mL each time.
`Cc1c(-n2nccn2)sc2c1c(=O)n(C(C)(C)C(=O)NC(C)C)c(=O)n2C[C@H](OC(C)C)c1cc(F)ccc1OCC#N` [Compound I-56, (R)-2-(1-(2-(2-(cyanomethoxy)-5-fluorophenyl)-2-isopropoxyethyl)-5-methyl-2,4-dioxo-6-(2H-1,2,3-triazol-2-yl)-1,4-dihydrothieno[2,3-d]pyrimidin-3(2H)-yl)-N-isopropyl-2-methylpropanamide]: the IC50 was 10 to 40 nM against human (hACC2) (Table 2a) and 10 to 40 nM at human (hACC2) (Table 2b, additional results). Also, the IC90 in experiment [1] (setting [2]) and in experiment [1] (setting [3]) was above 50 µg/mL in each case.
